From the NIST ThermoML archive (doi:10.1016/j.jct.2009.09.006) come the findings set out here.

A short description of data set [1]: Molar enthalpy of transition or fusion. The conditions noted are these: Crystal; DSC.
The conditions of data set [2]: Crystal; DTA.

Numbers after ± are expanded uncertainties.

For `CCCCn1cc[n+](C)c1.Cc1ccc(S(=O)(=O)[O-])cc1` [1-butyl-3-methylimidazolium tosylate], the “Molar enthalpy of transition or fusion” value in data set [1] came out at 3.91 ± 0.108 kcal/mol. Also, the Normal melting temperature in data set [2] turned out to be 57.01 ± 0.39 °C.
